Earlier results on six compounds are cited in US7148007B2, “Method for evaluating immunotoxicity of test substance” (priority 2001, dated 2006).

For the data set the following is noted: toxicity level based on that of 2,3,7,8-TCDD being 1; WHO 1998 TEF scheme.
In the case of `Clc1cc2c(cc1Cl)Oc1c(cc(Cl)c(Cl)c1Cl)O2` [1,2,3,7,8-PeCDD, 1,2,3,7,8-Pentachlorodibnzo-p-dioxin], the WHO-TEF was 1. As for `Clc1cc2c(cc1Cl)Oc1c(Cl)c(Cl)c(Cl)c(Cl)c1O2` [1,2,3,4,7,8-HxCDD, 1,2,3,4,7,8-Hexachlorodibenzo-p-dioxin], the WHO-TEF is recorded as 0.1. With `Clc1cc2c(c(Cl)c1Cl)Oc1cc(Cl)c(Cl)c(Cl)c1O2` [1,2,3,6,7,8-HxCDD], the WHO-TEF was 0.1. Turning to `Clc1c(Cl)c(Cl)c2c(c1Cl)Oc1c(Cl)c(Cl)c(Cl)c(Cl)c1O2` [OCDD, 1,2,3,4,5,6,7,8,9-Octachlorodibenzo-p-dioxin], the WHO-TEF is on record as 0.0001. For the compound `Clc1cc2c(cc1Cl)Oc1cc(Cl)c(Cl)cc1O2` [2,3,7,8-TCDD, 2,3,7,8-Tetraorodibenzo-p-dioxin], the WHO-TEF is given as 1. As for `Clc1cc2c(c(Cl)c1Cl)Oc1c(cc(Cl)c(Cl)c1Cl)O2` [1,2,3,7,8,9-HxCDD, 1,2,3,7,8,9-Hexachlorodibenzo-p-dioxin], the WHO-TEF is 0.1.
